{"source": "patent US8268795B2", "about": "(priority 2005, dated 2012)", "assay_type_in_all_cases": "cell-based, rabbit", "key": {"[1]": {"tested_on": "small diameter cerebral arteries constricted by 60 mmol/L K+", "experiment": "tissue or blood"}, "[2]": {"tested_on": "small diameter cerebral arteries from control and SAH rabbits"}, "[3]": {"biological_target": "T1, VDCC currents in cerebral artery myocytes (Oryctolagus cuniculus, UniProt P15381)", "T1 construct": "Vascular smooth muscle cells were enzymatically isolated from cerebral arteries as previously described; endogenous in cells; host or cells: freshly isolated cerebral artery myocytes from control and SAH (5 days post-surgery) New Zealand white rabbits", "T1 sequence (P15381 1-2166 isoform P15381-4)": "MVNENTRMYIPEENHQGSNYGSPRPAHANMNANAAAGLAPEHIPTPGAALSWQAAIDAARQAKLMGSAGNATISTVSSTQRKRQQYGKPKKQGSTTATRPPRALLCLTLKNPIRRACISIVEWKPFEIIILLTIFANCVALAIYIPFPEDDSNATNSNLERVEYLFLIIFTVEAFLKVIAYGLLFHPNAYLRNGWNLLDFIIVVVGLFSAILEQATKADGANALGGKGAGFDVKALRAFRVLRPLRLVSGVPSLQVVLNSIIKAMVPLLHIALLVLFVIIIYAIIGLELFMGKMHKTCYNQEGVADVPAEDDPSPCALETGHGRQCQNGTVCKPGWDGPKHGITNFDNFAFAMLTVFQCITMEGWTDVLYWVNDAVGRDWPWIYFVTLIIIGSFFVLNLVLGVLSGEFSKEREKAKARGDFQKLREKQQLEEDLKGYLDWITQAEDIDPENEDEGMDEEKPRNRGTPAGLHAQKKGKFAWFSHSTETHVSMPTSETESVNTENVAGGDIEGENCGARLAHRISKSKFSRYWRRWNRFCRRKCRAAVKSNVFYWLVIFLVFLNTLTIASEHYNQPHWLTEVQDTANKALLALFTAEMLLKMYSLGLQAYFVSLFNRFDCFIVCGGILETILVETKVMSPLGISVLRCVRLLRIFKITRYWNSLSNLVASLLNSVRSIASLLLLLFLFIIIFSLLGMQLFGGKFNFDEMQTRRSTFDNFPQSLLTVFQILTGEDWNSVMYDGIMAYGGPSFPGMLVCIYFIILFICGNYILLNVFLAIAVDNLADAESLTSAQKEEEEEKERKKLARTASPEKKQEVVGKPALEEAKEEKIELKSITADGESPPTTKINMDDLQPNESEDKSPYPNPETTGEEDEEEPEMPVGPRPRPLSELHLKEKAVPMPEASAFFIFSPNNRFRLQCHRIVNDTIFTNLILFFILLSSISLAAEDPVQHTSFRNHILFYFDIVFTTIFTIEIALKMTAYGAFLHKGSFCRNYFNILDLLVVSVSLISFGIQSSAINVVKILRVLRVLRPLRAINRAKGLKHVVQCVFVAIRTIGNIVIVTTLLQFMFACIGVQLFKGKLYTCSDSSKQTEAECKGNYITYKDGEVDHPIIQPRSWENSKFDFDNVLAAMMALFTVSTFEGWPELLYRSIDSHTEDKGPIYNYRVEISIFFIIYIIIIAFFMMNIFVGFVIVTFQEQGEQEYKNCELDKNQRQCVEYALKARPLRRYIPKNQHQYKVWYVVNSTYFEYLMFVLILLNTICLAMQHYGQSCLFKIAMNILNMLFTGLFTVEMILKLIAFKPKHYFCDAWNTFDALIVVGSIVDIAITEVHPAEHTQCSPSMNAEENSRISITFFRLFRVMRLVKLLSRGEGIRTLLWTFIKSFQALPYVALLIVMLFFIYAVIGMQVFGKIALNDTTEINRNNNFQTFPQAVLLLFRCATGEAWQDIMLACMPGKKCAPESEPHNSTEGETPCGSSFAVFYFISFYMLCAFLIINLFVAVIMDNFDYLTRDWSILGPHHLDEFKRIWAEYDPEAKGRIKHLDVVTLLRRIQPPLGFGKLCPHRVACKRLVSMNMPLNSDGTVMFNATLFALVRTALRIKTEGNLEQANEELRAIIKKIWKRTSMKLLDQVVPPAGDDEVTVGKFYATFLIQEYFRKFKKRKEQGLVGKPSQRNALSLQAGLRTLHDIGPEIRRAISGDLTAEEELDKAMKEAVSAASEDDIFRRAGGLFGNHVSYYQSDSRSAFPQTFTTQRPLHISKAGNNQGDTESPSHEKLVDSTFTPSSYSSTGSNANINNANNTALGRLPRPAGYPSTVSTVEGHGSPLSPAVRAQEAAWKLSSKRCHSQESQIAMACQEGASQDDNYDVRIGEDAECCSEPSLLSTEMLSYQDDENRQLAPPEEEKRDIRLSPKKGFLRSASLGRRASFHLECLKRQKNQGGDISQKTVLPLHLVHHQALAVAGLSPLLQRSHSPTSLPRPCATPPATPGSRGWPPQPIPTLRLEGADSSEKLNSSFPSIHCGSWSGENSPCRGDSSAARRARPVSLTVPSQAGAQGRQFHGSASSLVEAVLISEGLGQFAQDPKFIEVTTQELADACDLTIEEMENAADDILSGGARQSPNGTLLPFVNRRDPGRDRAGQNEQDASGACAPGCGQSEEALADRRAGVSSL"}, "[4]": {"tested_on": "VDCC currents in cerebral artery myocytes"}, "[5]": {"biological_target": "T2, VDCC currents in cerebral artery myocytes (Oryctolagus cuniculus, UniProt Q02343)", "T2 construct": "Vascular smooth muscle cells were enzymatically isolated from cerebral arteries as previously described; endogenous in cells; host or cells: freshly isolated cerebral artery myocytes from control and SAH (5 days post-surgery) New Zealand white rabbits", "T2 sequence (Q02343 whole entry)": "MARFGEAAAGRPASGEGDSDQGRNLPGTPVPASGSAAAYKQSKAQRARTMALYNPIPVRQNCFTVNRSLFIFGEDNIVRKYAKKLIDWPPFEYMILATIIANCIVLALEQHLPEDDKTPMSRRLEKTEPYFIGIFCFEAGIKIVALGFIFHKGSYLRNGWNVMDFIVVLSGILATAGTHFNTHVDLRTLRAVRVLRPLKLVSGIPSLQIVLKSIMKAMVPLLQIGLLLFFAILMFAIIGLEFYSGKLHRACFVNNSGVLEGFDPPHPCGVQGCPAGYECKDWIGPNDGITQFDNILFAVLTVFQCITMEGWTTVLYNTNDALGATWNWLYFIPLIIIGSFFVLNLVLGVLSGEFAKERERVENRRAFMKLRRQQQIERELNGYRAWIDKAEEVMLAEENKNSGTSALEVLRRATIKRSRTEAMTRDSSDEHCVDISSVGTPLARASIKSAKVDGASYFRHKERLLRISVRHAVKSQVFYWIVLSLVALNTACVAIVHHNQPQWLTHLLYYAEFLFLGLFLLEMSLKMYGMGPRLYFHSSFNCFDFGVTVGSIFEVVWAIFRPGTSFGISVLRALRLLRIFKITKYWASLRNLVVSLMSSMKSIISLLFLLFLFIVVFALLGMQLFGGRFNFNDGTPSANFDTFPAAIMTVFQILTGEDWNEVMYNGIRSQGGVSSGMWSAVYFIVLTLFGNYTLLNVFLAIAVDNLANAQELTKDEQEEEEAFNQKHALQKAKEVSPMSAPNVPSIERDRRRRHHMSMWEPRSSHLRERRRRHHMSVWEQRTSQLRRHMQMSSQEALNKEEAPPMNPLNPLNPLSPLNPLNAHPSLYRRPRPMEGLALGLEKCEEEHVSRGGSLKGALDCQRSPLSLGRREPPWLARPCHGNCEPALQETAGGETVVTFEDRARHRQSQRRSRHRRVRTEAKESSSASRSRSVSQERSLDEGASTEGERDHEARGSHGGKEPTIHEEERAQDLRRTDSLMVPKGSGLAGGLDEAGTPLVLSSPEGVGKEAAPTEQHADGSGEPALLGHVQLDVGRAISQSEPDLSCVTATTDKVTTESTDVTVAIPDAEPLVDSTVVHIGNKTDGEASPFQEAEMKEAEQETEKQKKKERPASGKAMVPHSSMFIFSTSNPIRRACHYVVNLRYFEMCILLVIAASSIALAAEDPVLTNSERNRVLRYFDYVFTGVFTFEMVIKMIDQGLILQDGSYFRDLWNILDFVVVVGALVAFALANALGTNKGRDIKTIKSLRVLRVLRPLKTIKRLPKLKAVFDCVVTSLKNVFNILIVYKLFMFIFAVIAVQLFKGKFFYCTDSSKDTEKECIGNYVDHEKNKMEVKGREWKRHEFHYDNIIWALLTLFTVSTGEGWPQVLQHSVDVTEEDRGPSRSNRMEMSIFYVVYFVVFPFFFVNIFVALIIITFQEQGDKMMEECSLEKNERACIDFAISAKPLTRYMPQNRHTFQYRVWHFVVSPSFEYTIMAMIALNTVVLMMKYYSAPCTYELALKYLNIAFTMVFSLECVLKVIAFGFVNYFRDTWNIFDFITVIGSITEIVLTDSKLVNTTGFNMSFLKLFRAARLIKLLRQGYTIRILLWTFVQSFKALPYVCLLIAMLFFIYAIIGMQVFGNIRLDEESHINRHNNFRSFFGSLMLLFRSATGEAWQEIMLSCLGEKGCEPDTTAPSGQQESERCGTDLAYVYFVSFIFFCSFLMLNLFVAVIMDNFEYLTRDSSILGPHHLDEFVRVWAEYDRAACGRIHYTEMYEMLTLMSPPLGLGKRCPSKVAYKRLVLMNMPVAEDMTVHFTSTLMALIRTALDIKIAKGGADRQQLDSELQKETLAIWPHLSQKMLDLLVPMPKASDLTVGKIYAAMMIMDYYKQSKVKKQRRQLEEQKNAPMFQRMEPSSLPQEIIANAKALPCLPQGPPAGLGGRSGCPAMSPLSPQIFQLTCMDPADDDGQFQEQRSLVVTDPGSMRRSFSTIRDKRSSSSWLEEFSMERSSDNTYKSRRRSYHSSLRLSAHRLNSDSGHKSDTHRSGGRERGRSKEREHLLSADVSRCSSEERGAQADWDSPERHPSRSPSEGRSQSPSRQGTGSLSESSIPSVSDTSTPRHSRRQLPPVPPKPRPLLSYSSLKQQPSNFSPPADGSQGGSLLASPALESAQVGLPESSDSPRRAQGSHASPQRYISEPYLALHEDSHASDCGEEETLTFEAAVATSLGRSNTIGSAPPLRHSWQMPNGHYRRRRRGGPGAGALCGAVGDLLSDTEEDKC"}}, "note": "Where a name gives a salt, the structure may show the parent alone. Read-outs that look alike come from different tables or passages of the source."}
{"compound": "COc1ccc([C@@H]2Sc3ccccc3N(CCN(C)C)C(=O)[C@@H]2OC(C)=O)cc1", "note": "(relative stereo) [diltiazem, benzothiazepin-4(5H)-one, 3-(acetyloxy)-5-[2-(dimethylamino)ethyl]-2,3-dihydro-2-(4-methoxyphenyl)-,(+)-cis-,monohydrochloride]", "values": [{"measurement": "IC50", "setting": "[1]; Oryctolagus cuniculus, 120 h", "value": "16.9 ± 6.9", "unit": "µM"}, {"measurement": "EC50", "setting": "[1]; Oryctolagus cuniculus, B164, 0 h, read-out: EC50 of diltiazem treatment of K+ induced constricted arteries, Day 0, −Oxy Hb", "value": "1.02 ± 0.07", "unit": "µM"}, {"measurement": "EC50", "setting": "[1]; Oryctolagus cuniculus, B164, 24 h, read-out: EC50 of diltiazem treatment of K+ induced constricted arteries, Day 1, +Oxy Hb", "value": "0.95 ± 0.14", "unit": "µM"}, {"measurement": "EC50", "setting": "[1]; Oryctolagus cuniculus, B164, 24 h, read-out: EC50 of diltiazem treatment of K+ induced constricted arteries, Day 1, −Oxy Hb", "value": "0.76 ± 0.07", "unit": "µM"}, {"measurement": "EC50", "setting": "[1]; Oryctolagus cuniculus, B164, 72 h, read-out: EC50 of diltiazem treatment of K+ induced constricted arteries, Day 3, +Oxy Hb", "value": "1.07 ± 0.06", "unit": "µM"}, {"measurement": "EC50", "setting": "[1]; Oryctolagus cuniculus, B164, 72 h, read-out: EC50 of diltiazem treatment of K+ induced constricted arteries, Day 3, −Oxy Hb", "value": "0.78 ± 0.12", "unit": "µM"}, {"measurement": "EC50", "setting": "[1]; Oryctolagus cuniculus, B164, 120 h, read-out: EC50 of diltiazem treatment of K+ induced constricted arteries, Day 5, +Oxy Hb", "value": "16.9 ± 6.9", "unit": "µM"}, {"measurement": "EC50", "setting": "[1]; Oryctolagus cuniculus, B164, 120 h, read-out: EC50 of diltiazem treatment of K+ induced constricted arteries, Day 5, −Oxy Hb", "value": "1.1 ± 0.1", "unit": "µM"}, {"measurement": "reduction of K+-induced constriction", "setting": "[1]; […], diltiazem 1 mmol/L, 60 mmol/L K+", "value": "99.7±0.4", "unit": "%"}, {"measurement": "pressure-induced constriction at 100 mmHg", "setting": "[2]; arteries from control animals, diltiazem 50 μmol/L", "value": "abolished"}, {"measurement": "block of membrane currents", "setting": "[3]", "value": "completely blocked"}, {"measurement": "current resistant to the L-type VDCC antagonist", "setting": "[4]", "value": "approximately 20%"}]}
{"compound": "[Cd]", "note": "[cadmium]", "values": [{"measurement": "VDCC currents resistant to nifedipine (10 μmol/L)", "setting": "[5]; SAH myocytes, cadmium 200 μmol/L, n=4, data not shown", "value": "abolished"}]}
{"compound": "H-Gly-Val-Asp-Lys-Ala-Gly-Cys-Arg-Tyr-Met-Phe-Gly-Gly-Cys-Ser-Val-Asn-Asp-Asp-Cys-Cys-Pro-Arg-Leu-Gly-Cys-His-Ser-Leu-Phe-Ser-Tyr-Cys-Ala-Trp-Asp-Leu-Thr-Phe-Ser-Asp-OH (H-GVDKAGCRYMFGGCSVNDDCCPRLGCHSLFSYCAWDLTFSD-OH; cysteine pairing not given here) [SNX-482]", "values": [{"measurement": "dilation of cerebral arteries in the absence of diltiazem", "setting": "[1]; arteries constricted with 60 mmol/L K+, SNX-482 220 nmol/L alone", "value": "can dilate"}, {"measurement": "residual constriction observed in the presence of diltiazem", "setting": "[1]; arteries cultured with oxyhemoglobin for 5 days, 60 mM K+, 1 mmol/L diltiazem, then SNX-482 220 nmol/L", "value": "effectively reversed"}, {"measurement": "dilation of pressurized cerebral arteries", "setting": "[2]; arteries from SAH animals, pressurized to 100 mmHg", "value": "approximately 30%"}, {"measurement": "effect on pressurized arteries", "setting": "[2]; arteries from control animals, pressurized to 100 mmHg", "value": "no significant effect"}, {"measurement": "effect on VDCC currents", "setting": "[3]; myocytes from control animals, SNX-482 200 nmol/L", "value": "no effect"}, {"measurement": "reduction of VDCC currents", "setting": "[5]; myocytes from SAH animals, SNX-482 200 nmol/L", "value": "approximately 30%"}]}
{"compound": "ω-Agatoxin IVA", "values": [{"measurement": "peak inward currents at +20 mV", "setting": "[4]; SAH myocytes, 100 nmol/L", "value": "did not alter"}]}
{"compound": "ω-Conotoxin GVIA", "values": [{"measurement": "peak inward currents at +20 mV", "setting": "[4]", "value": "did not alter"}]}
